Source: the NIST ThermoML archive (doi:10.1021/je050183a)

Key:
[1] = refractive index (Na D-line) (dimensionless); xn = mol fraction of the nth substance listed; details: 298.15 K, 101 kPa, Liquid, Standard Abbe refractometry
[2] = xn = mol fraction of the nth substance listed; details: 101 kPa, Liquid; for viscosity: Capillary tube (Ostwald / Ubbelohde) method; for speed of sound: Linear variable-path acoustic interferometer; for mass density: Pycnometric method

CC1OC(C)OC(C)O1 (stereo unspecified) [2,4,6-trimethyl-1,3,5-trioxane] + CCOC(=O)OCC
[1]
Details | refractive index
x1 = 0.0215 | 1.3835
x1 = 0.0425 | 1.384
x1 = 0.0615 | 1.3844
x1 = 0.0816 | 1.3848
x1 = 0.1036 | 1.3853
x1 = 0.1911 | 1.3873
x1 = 0.317 | 1.3901
x1 = 0.4272 | 1.3926
x1 = 0.5162 | 1.3945
x1 = 0.608 | 1.3963
x1 = 0.7032 | 1.3982
x1 = 0.7984 | 1.3999
x1 = 0.8957 | 1.4015
x1 = 1 | 1.4029

[2]
Details | mass density, 288.15 K [kg/m3] | mass density, 298.15 K [kg/m3] | speed of sound, 288.15 K [m/s] | speed of sound, 298.15 K [m/s] | viscosity, 288.15 K [mPa·s] | viscosity, 298.15 K [mPa·s]
x1 = 0.0215 | 980.99 | 969.57 | 1224 | 1173.8 | 0.877 | 0.756
x1 = 0.0425 | 981.54 | 969.99 | 1222.6 | 1174.2 | 0.885 | 0.763
x1 = 0.0615 | 982.03 | 970.36 | 1221.4 | 1174.5 | 0.892 | 0.768
x1 = 0.0816 | 982.54 | 970.76 | 1220.3 | 1174.8 | 0.899 | 0.774
x1 = 0.1036 | 983.08 | 971.19 | 1219.1 | 1175 | 0.906 | 0.779
x1 = 0.1911 | 985.12 | 972.92 | 1215.7 | 1175.6 | 0.931 | 0.798
x1 = 0.317 | 987.74 | 975.41 | 1213.4 | 1175.3 | 0.959 | 0.819
x1 = 0.4272 | 989.8 | 977.57 | 1213.2 | 1174.4 | 0.985 | 0.836
x1 = 0.5162 | 991.35 | 979.28 | 1213.8 | 1173.5 | 1.011 | 0.854
x1 = 0.608 | 992.87 | 981 | 1214.8 | 1172.6 | 1.047 | 0.878
x1 = 0.7032 | 994.41 | 982.74 | 1215.7 | 1171.9 | 1.098 | 0.913
x1 = 0.7984 | 995.94 | 984.41 | 1216.2 | 1171.5 | 1.167 | 0.962
x1 = 0.8957 | 997.54 | 986.04 | 1216.7 | 1171.8 | 1.26 | 1.028
x1 = 1 | 999.69 | 988.35 | 1217.7 | 1174.5 | 1.374 | 1.107

CC1OC(C)OC(C)O1 (stereo unspecified) [2,4,6-trimethyl-1,3,5-trioxane] + COC(=O)OC
[1]
Details | refractive index
x1 = 0.0204 | 1.3673
x1 = 0.0409 | 1.3686
x1 = 0.059 | 1.3696
x1 = 0.0845 | 1.3711
x1 = 0.1091 | 1.3725
x1 = 0.2258 | 1.3786
x1 = 0.3012 | 1.382
x1 = 0.3994 | 1.386
x1 = 0.494 | 1.3894
x1 = 0.5906 | 1.3925
x1 = 0.696 | 1.3956
x1 = 0.808 | 1.3985
x1 = 0.9289 | 1.4014
x1 = 1 | 1.4029

[2]
Details | mass density, 288.15 K [kg/m3] | mass density, 298.15 K [kg/m3] | speed of sound, 288.15 K [m/s] | speed of sound, 298.15 K [m/s] | viscosity, 288.15 K [mPa·s] | viscosity, 298.15 K [mPa·s]
x1 = 0.0204 | 1074.19 | 1060.99 | 1242.2 | 1197.4 | 0.66 | 0.59
x1 = 0.0409 | 1071.96 | 1058.89 | 1242.3 | 1197.3 | 0.673 | 0.6
x1 = 0.059 | 1070.03 | 1057.07 | 1242.4 | 1197.3 | 0.684 | 0.609
x1 = 0.0845 | 1067.35 | 1054.53 | 1242.4 | 1197 | 0.699 | 0.62
x1 = 0.1091 | 1064.81 | 1052.11 | 1242.3 | 1196.8 | 0.713 | 0.63
x1 = 0.2258 | 1053.37 | 1041.01 | 1240.4 | 1194.6 | 0.77 | 0.673
x1 = 0.3012 | 1046.5 | 1034.2 | 1238.4 | 1192.7 | 0.803 | 0.697
x1 = 0.3994 | 1038.14 | 1025.83 | 1235 | 1189.6 | 0.844 | 0.727
x1 = 0.494 | 1030.68 | 1018.35 | 1231.2 | 1186 | 0.887 | 0.757
x1 = 0.5906 | 1023.62 | 1011.31 | 1227.2 | 1182.3 | 0.936 | 0.793
x1 = 0.696 | 1016.52 | 1004.26 | 1223.1 | 1178.5 | 1.002 | 0.84
x1 = 0.808 | 1009.63 | 997.47 | 1219.3 | 1175.3 | 1.091 | 0.906
x1 = 0.9289 | 1002.87 | 991.2 | 1216.7 | 1173.1 | 1.214 | 0.998
x1 = 1 | 999.69 | 988.35 | 1217.7 | 1174.5 | 1.374 | 1.107
